“And” between values parts separate entries of the source, which are not always exact repeats. Equal entries are not always repeated.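 A five-concentration, 48-hour dose response in 96-well plates underlies each endpoint, interpolated linearly between surrounding concentrations. Here, GI50 denotes the concentration required for 50% inhibition of growth. The concentration for full growth arrest is given as TGI.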
Tests used:
Test in all cases: NCI anticancer screen, dose series, 48 h
DLD-1 colon = system: DLD-1 colon
DMS 273 small cell lung = system: DMS 273 small cell lung
HOP-18 NSCLC = system: HOP-18 NSCLC
LXFL 529 NSCLC = system: LXFL 529 NSCLC
M19-MEL melanoma = system: M19-MEL melanoma
RXF-631 renal = system: RXF-631 renal
SNB-78 CNS = system: SNB-78 CNS
XF 498 CNS = system: XF 498 CNS
MDA-N = system: MDA-N

| SMILES | TGI (DLD-1 colon) | TGI (DMS 273 small cell lung) | TGI (HOP-18 NSCLC) | TGI (LXFL 529 NSCLC) | TGI (M19-MEL melanoma) | TGI (SNB-78 CNS) | TGI (XF 498 CNS) | TGI (MDA-N) | also measured |
| --- | --- | --- | --- | --- | --- | --- | --- | --- | --- |
| CC(/C=C/C(=O)c1sc(C(N)=S)nc1C)=C\c1ccccc1 | 57.4 µM | 45.5 µM | > 100 µM | > 100 µM | > 100 µM | > 100 µM | > 100 µM |  | TGI (RXF-631 renal): > 100 µM |
| Cc1ccc2oc(=O)c3c(O)c4cccc(OC5OC(C)C6O[C@@H](c7ccccc7)OC6C5OC5OC(C)C(O)C(O)C5O)c4c4oc(=O)c1c2c34 (stereo partly specified) | 6.08 µM | 1.09 µM | 19.4 µM | 6.5 µM | 3.43 µM | 5.23 µM | 2.05 µM | 1.72 µM | TGI (RXF-631 renal): 4.4 µM |
| CC1=NN(c2ccccc2)C(=O)C12[C@H](c1ccccc1)C2(C#N)C#N (stereo partly specified) | 4.01 µM | 6.28 µM | 20.3 µM | 3.89 µM | 6.41 µM | 34 µM | 7.22 µM |  |  |
| CN1CCN=C1c1nnn(-c2ccc([N+](=O)[O-])cc2)c1-c1ccccc1 | > 100 µM | > 100 µM | > 100 µM | > 100 µM | > 100 µM | > 100 µM | > 100 µM |  |  |
| Cc1ccccc1-n1c(=S)[nH]c2c(sc(=O)n2-c2ccccc2C)c1=O | > 100 µM | > 100 µM | > 100 µM | > 100 µM | > 100 µM | > 100 µM |  |  | TGI (RXF-631 renal): > 100 µM |
| COc1ccc(NC(=O)CC(=O)N/N=C(\C)c2cc3ccccc3oc2=O)cc1 | > 100 µM | > 100 µM | > 100 µM |  | > 100 µM |  |  |  |  |
| C=C(C)[C@@H]1CCc2c(O)c(O)c(=O)cc(C)c2C1 |  |  |  |  |  |  |  | > 100 µM |  |
| COc1ccc(Br)c(CN2CCc3ccccc32)c1OS(=O)(=O)c1ccc(C)cc1 | > 100 µM |  | > 100 µM |  | > 100 µM | > 100 µM | 92 µM |  | TGI (RXF-631 renal): > 100 µM |
| COc1c(OC)c(OC)c2c(=O)cc(-c3ccc(OC(C)C)cc3)oc2c1OC |  |  |  |  |  |  |  | > 53.8 µM |  |
| CCCCCCCCCCCNC=O |  |  |  |  |  |  |  | > 100 µM |  |
| COc1cc(Cl)c(CC(=O)c2c[nH]c3ccccc23)cc1OC |  |  |  |  |  |  |  | > 100 µM |  |
| O=C1OC(=O)C23CSCC12C1C=CC3O1 (stereo unspecified) | > 100 µM | > 100 µM |  | > 100 µM | > 100 µM |  | > 100 µM |  |  |
| CC1=C(CO)C(=O)O[C@@H]([C@@H](C)[C@H]2CC[C@H]3[C@@H]4C[C@H]5O[C@]56[C@@H](O)C=CC(=O)[C@]6(C)[C@H]4CC[C@]23C)C1 | 1.03 µM | 1.53 µM |  | 1.26 µM | 3.01 µM |  | 2.82 µM |  |  |
| COc1ccc(N2C(=O)[C@@H](N=[N+]=[N-])[C@@H]2[C@H]2COC(C)(C)O2)cc1 |  | > 100 µM | > 100 µM | > 100 µM | > 100 µM | > 100 µM |  |  |  |
| CS(=O)(=O)c1ccc(COP(N)(=O)N(CCCl)CCCl)cc1 (stereo unspecified) | > 100 µM | > 100 µM |  | > 100 µM | > 100 µM | > 100 µM | > 100 µM |  |  |
| COc1cc(Cc2c(C)cc(OC)c3[nH]c4ccccc4c23)cc2c1[nH]c1ccccc12 | > 25 µM | 21.6 µM |  | 22.4 µM | > 25 µM | 17 µM | > 25 µM |  | GI50 (DLD-1 colon): 8.99 µM; GI50 (DMS 273 small cell lung): 7.64 µM; GI50 (LXFL 529 NSCLC): 4.13 µM; GI50 (M19-MEL melanoma): 9.67 µM; GI50 (XF 498 CNS): 6.03 µM |
| CCC(C)(O)c1cn(-c2ccc(Cl)cc2)nn1 (stereo unspecified) | > 100 µM | > 100 µM | > 100 µM | > 100 µM | > 100 µM | > 100 µM |  |  |  |
| CCCCNS(=O)(=O)c1ccc(-c2ccc3c(c2)-c2ccc(S(=O)(=O)NCCCC)cc2S3(=O)=O)cc1 | > 100 µM | > 100 µM | 54 µM | 33.9 µM | > 100 µM | 33.4 µM | 23.9 µM |  |  |
| CC(=O)OCC1OC(n2c(=O)[nH]c(=O)c3n[nH]nc32)C(OC(C)=O)C(OC(C)=O)C1OC(C)=O (stereo unspecified) | > 100 µM | > 100 µM | > 100 µM | > 100 µM | > 100 µM |  | > 100 µM |  |  |
| Cc1cc(=O)[nH]c(NNC(C#N)c2ccccc2O)n1 (stereo unspecified) | > 100 µM | > 100 µM | > 100 µM |  | > 100 µM |  |  |  |  |
| CCCCCCC(=O)C/C(CCC(=O)N(Cc1ccccc1)Cc1ccccc1)=N\NC(N)=O |  | > 100 µM | > 100 µM | > 100 µM | > 100 µM | > 100 µM | > 100 µM |  | TGI (RXF-631 renal): > 100 µM |
| CCOC(=O)[C@@]12C(C)=CC(=O)O[C@]1(C)C1C(=O)NC(=O)C12 (stereo partly specified) | > 100 µM | > 100 µM | > 100 µM | > 100 µM |  | > 100 µM |  |  | TGI (RXF-631 renal): > 100 µM |

| SMILES | TGI (DLD-1 colon) | TGI (DMS 273 small cell lung) | TGI (HOP-18 NSCLC) | TGI (LXFL 529 NSCLC) | TGI (M19-MEL melanoma) | TGI (SNB-78 CNS) | TGI (XF 498 CNS) | TGI (MDA-N) | also measured |
| --- | --- | --- | --- | --- | --- | --- | --- | --- | --- |
| COc1ccc(CSC2=C(C#N)C(=O)NC3(CCCCC3)S2)cc1 |  |  |  |  |  |  |  | 57.5 µM |  |
| C=CCC12CC(=O)CCC1c1ccc(OC)cc1C2=O (stereo unspecified) | > 100 µM | > 100 µM | > 100 µM | > 100 µM | > 100 µM | > 100 µM |  |  |  |
| O=c1cc[nH]cc1-c1c[nH]ccc1=O | > 100 µM | > 100 µM | > 100 µM | > 100 µM | > 100 µM | > 100 µM |  |  |  |
| CC(C)C1(NC(=O)C2CC3c4cccc5[nH]cc(c45)CC3N(C)C2)OC2(O)C3CCCN3C(=O)C(Cc3ccccc3)N2C1=O (stereo unspecified) |  |  |  |  |  |  |  | > 100 µM |  |
| Cc1ccc(N2C(=O)/C(=C/c3ccc(N(CCC#N)CCC#N)cc3)N=C2COc2ccc(Cl)cc2Cl)cc1 | > 100 µM |  | > 100 µM | > 100 µM |  | > 100 µM | > 100 µM |  | TGI (RXF-631 renal): > 100 µM |
| COC(=O)c1onc(C2OC(C)(C)OC2C(O)COC(c2ccccc2)(c2ccccc2)c2ccccc2)c1C(=O)OC (stereo unspecified) |  |  |  |  |  |  |  | > 100 µM |  |
| COC(=O)CC1(O)C=CC(=O)C=C1 |  |  |  |  |  |  |  | 20.9 µM |  |
| O=c1[nH]c2ccccc2c(O)c1/C=N/C(=S)NC1CCCCC1 |  |  |  |  |  |  |  | > 100 µM |  |
| CCCCCCCC(=O)[O-].CCCCCCCC(=O)[O-].N.N.N.N.[Co+3].[O-][Cl+3]([O-])([O-])[O-] | > 100 µM |  | > 100 µM |  |  | > 100 µM |  |  | GI50 (DLD-1 colon): > 100 µM; GI50 (HOP-18 NSCLC): 54.8 µM; GI50 (SNB-78 CNS): > 100 µM |
| CCOC(=O)c1sc2c(C(=O)OCC)n3cc(C)cc(C)c3c2c1O | > 100 µM | > 100 µM |  | > 100 µM | > 100 µM | > 100 µM |  |  |  |
| O=S(=O)(/N=S(/Nc1ccccc1)C(F)(F)Cl)c1ccccc1 (stereo unspecified) |  |  |  |  |  |  |  | > 100 µM |  |
| COc1ccc2c(c1O)[C@@]13CCCC=C1[C@@H](C2)[N+](C)(C)CC3 |  |  |  |  |  |  |  | > 100 µM |  |
| CCC[CH2][Sn]([CH2]CCC)([CH2]CCC)/[C](=C/[Si](C)(C)c1ccccc1)c1ccc2c(c1)OCO2 |  |  |  |  |  |  |  | 40.3 µM | GI50 (MDA-N): 19.5 µM |
| O=C1C(Cl)=C(Cl)C(=O)N1c1ccc(Cl)c(Cl)c1Cl | > 100 µM | > 100 µM | > 100 µM | 88 µM | > 100 µM | > 100 µM |  |  | TGI (RXF-631 renal): > 100 µM |
| COc1cc(/C=C/C(=O)CC(=O)/C=C/c2cc(OC)c(O)c(OC)c2)cc(OC)c1O |  |  |  |  |  |  |  | 11.2 µM and > 100 µM | GI50 (MDA-N): 16.9 µM |
| COc1cc(C)cc(C(=O)/C=C/c2ccccc2)c1O |  |  |  |  |  |  |  | 55.2 µM |  |
| COc1cc2c(cc1OC)C(C(CBr)CBr)N(C1CCCC1)CC2 (stereo unspecified) | > 100 µM | > 100 µM |  | > 100 µM | > 100 µM |  | > 100 µM |  |  |
| CC(C)N(C(=O)C12C3C4C5(C(=O)O)C(C1C35I)C42C(=O)O)C(C)C (stereo unspecified) | > 100 µM | > 100 µM |  | > 100 µM | > 100 µM | > 100 µM |  |  | TGI (RXF-631 renal): > 100 µM |
| C1CSC[C@H]2COC[C@@H](CSCCS1)S2 |  |  |  |  |  |  |  | > 100 µM |  |
| Cc1ccc(SSCC(O)C(O)CSSc2ccc(C)cc2)cc1 (stereo unspecified) | 32.1 µM and 30 µM | 14.9 µM and 22.5 µM | 31.9 µM and 53.6 µM | 19 µM and 22.9 µM | 25.5 µM and 36.9 µM | 52.6 µM | 26.7 µM and 31.4 µM |  | GI50 (DMS 273 small cell lung): 4.26 µM and 10.5 µM; GI50 (HOP-18 NSCLC): 13.5 µM and 27.2 µM; GI50 (RXF-631 renal): 10.1 µM and 3.4 µM; TGI (RXF-631 renal): 22.2 µM and 15.7 µM |
| CCCC(O)c1cn(-c2cccc(S(=O)(=O)O)c2)nn1 (stereo unspecified) | > 100 µM | > 100 µM | > 100 µM | > 100 µM | > 100 µM | > 100 µM | > 100 µM |  | TGI (RXF-631 renal): > 100 µM |
| COc1ccc(-c2cc3ccccc3[nH]c2=O)cc1OC | > 100 µM | > 100 µM | > 100 µM | > 100 µM | > 100 µM | > 100 µM | > 100 µM |  |  |

From PubChem BioAssay (NCI)
